From patent US11203608B2, “Platinum-containing compounds, and related compositions and uses thereof” (Massachusetts Institute of Technology, priority 2019, dated 2021)

Assays:
[1] = system: APC−/−; TdTomato+ (A-tdt) organoids; assay: Viability of A-tdt murine colorectal cancer organoids, resazurin assay; assay type: cell-based; conditions: 72-h exposure (table title); read-out: IC50 against A-tdt organoids
Description: (§1) Colonic crypts were isolated and colon organoids were generated from the following mouse genotypes on a C57Bl/6 background: 1. Rosa-LSL-TdTomato (hereafter LSL-tdt), 2. P53^f1/f1; LSL-tdt, and 3. LSL-KRAS^G12D/WT; P53^fl/fl; LSL-tdt mice. Subsequently, the pSECC-APC plasmid (carrying Cre, Cas9, and sgAPC) was transfected into each of the above three genotypes of colon organoids. This transfection strategy generated, in a single step, the following colorectal cancer organoids, including 1. APC^−/−; TdTomato^+ (A-tdt), 2. APC^−/−; P53^−/−; TdTomato^+ (AP-tdt), and 3. APC^−/−; KRAS^G12D/WT; P53^−/−; TdTomato^+ (AKP-tdt). Organoids of the desired genotype were selected for by Wnt/Rspo withdrawal for APC^−/−, Nutlin-3 addition for P53^−/−, and EGF withdrawal for KRAS^G12D.
(§2) Twenty four hours after seeding the organoids, a media change was performed and dose responses of oxaliplatin, doxorubicin and doxaliplatin were added. […] Organoids were cultured in Advanced DMEM/F12 supplemented with 2 mM GlutaMAX, 1% Penicillin-Streptomycin, 2% B27, and Y-27632 (10 μM).

[2] = system: APC−/−; P53−/−; TdTomato+ (AP-tdt) organoids; assay: Viability of AP-tdt murine colorectal cancer organoids, resazurin assay; assay type: cell-based; conditions: 72-h exposure (table title); read-out: IC50 against AP-tdt organoids
Description: as §1, §2

[3] = system: APC−/−; KRASG12D/WT; P53−/−; TdTomato+ (AKP-tdt) organoids; assay: Viability of AKP-tdt murine colorectal cancer organoids, resazurin assay; assay type: cell-based; conditions: 72-h exposure (table title); read-out: IC50 against AKP-tdt organoids
Description: as §1, §2

[4] = system: APC−/−; KRASG12D/WT; P53−/−; MSH2−/− (AKP-MSH2) organoids; assay: Viability of AKP-MSH2 murine colorectal cancer organoids; assay type: cell-based
Description: To generate 4. APC^−/−; KRAS^G12D/WT; P53^−/−; (AKP) and 5. APC^−/−; KRAS^G12D/WT; P53^−/−; MSH2^−/− (AKP-MSH2) colon cancer organoids, colonic crypts were isolated and colon organoids were generated from the following mouse genotypes on a C57Bl/6 background: 4. LSL-KRAS^G12D/WT; P53^fl/fl mice and 5. LSL-KRAS^G12D; P53^fl/fl; MSH2^fl/fl mice. Subsequently, the pSECC-APC plasmid (carrying Cre, Cas9, and sgAPC) was transfected into each of the above two genotypes of colon organoids. Following pSECC-APC transfection, Wnt/Rspo withdrawal was performed and surviving (APC^−/−) single organoids were cloned and PCR genotyped for Cre mediated deletion of p53 and/or MSH2, and for Cre mediated activation of oncogenic KRAS^G12D.
as §2

[5] = system: MDA-MB-231 human breast adenocarcinoma; assay: Cell growth, resazurin assay, MDA-MB-231; assay type: cell-based; conditions: 96-h exposure (table title)
Description: (§3) Cells were cultured in 10 mL of Advanced DMEM/F12 (ADMEM/F12), supplemented with 5% FBS, 2 mM GlutaMAX, and 1% Penicillin-Streptomycin in 10 cm tissue culture plates. Cells were then plated into 96-well plates with about 2.5×10^3 cells per well. Cells were plated with 200 μL per well of ADMEM/F12 supplemented with 5% FBS, 2 mM GlutaMAX, and 1% Penicillin-Streptomycin. Cells were treated with dose responses of doxorubicin, oxaliplatin, or doxaliplatin upon plating. The cells were then cultured for 72 hours following drug treatment, and cell growth was measured by resazurin assay.

[6] = system: PC3 human prostate adenocarcinoma; assay: Cell growth, resazurin assay, PC3; assay type: cell-based; conditions: 96-h exposure (table title)
Description: as §3

[7] = system: A549 human lung carcinoma; assay: Cell growth, resazurin assay, A549; assay type: cell-based; conditions: 96-h exposure (table title)
Description: as §3

[8] = system: doxorubicin-resistant A2780ADR human ovarian cancer cell line; assay: Cell growth, resazurin assay, A2780ADR; assay type: cell-based; conditions: 72-h exposure
Description: as §3

[9] = system: cisplatin-resistant A2780CIS human ovarian cancer cell line; assay: Cell growth, resazurin assay, A2780CIS; assay type: cell-based; conditions: 72-h exposure
Description: as §3

[10] = system: OVCAR8 human ovarian cancer cell line; assay: Cell growth, resazurin assay, OVCAR8; assay type: cell-based; conditions: 72-h exposure
Description: as §3

[11] = system: A2780 human ovarian cancer cell line
Description: ICP-MS was performed on an Agilent 7900 ICP-MS in helium mode.
The cells in a six-well plate were treated with oxaliplatin, doxaliplatin, or a mixture of doxorubicin and oxaliplatin at indicated concentration in 2 mL of Advanced DMEM/F12 (ADMEM/F12), supplemented with 5% FBS, 2 mM GlutaMAX, and 1% Penicillin-Streptomycin. After three hours, the media were removed. The cells were washed with xl PBS buffer containing EDTA (100 μM, 4 mL×2). To each well, MilliQ water (1.0 mL) was added. After 15 min, the cells were suspended. A portion of the resulting cell lysate (900 μL) was transferred to an Eppendorf tube. The samples were frozen in liquid nitrogen and thawed at room temperature. This procedure was repeated for three times. The insoluble lysate was pelleted (10000 rpm for 10 min). […] Pierce 660 nm Protein solution (200 μL) was added to each well. An aliquot of the lysate (14.2 μL) was added to each well. The plate was shaken and read on a plate reader. The remaining samples were frozen at liquid nitrogen temperature and lyophilized. The dried material was digested with Aristar® ultrapure concentrated nitric acid (70%) at 70° C. for one hour. An aliquot of this solution (142 μL) was mixed with molecular biology grade water (2000 μL) and a terbium internal standard (40 μL, 100 ppb). The platinum content was then determined using an Agilent 7900 ICP-MS in helium mode. The concentration of platinum in the cells was normalized to measured protein concentration described above.

- IC50 [1]: 460 nM
- IC50 [2]: 410 nM
- IC50 [3]: 430 nM
- IC50 ([4]; 72-h exposure, read-out: IC50 against AKP-MSH2 organoids): 78 nM
- Potency relative to oxaliplatin (by IC50) ([4]; AKP-MSH2 organoids): 28 fold
- IC50 [5]: 110 nM
- IC50 [6]: 92 nM
- IC50 [7]: 100 nM
- IC50 [8]: 72 nM
- IC90 [8]: 490 nM
- IC50 [9]: 280 nM
- IC90 [9]: 380 nM
- IC50 [10]: 140 ± 10 nM
Structure (SMILES): COc1cccc2c1C(=O)c1c(O)c3c(c(O)c1C2=O)CC(O)(C(=O)CO)CC3OC1CC(N)C(N)C(C)O1.O=C1[O][Pt][O]C1=O (centres unmarked) [DoxPt, Doxaliplatin]
- IC95 [8]: 670 nM
- IC95 [9]: 410 nM
- IC80 [10]: 370 ± 20 nM
- Platinum concentration in treated cells relative to oxaliplatin-treated cells [11]: approximately ten times higher than in oxaliplatin-treated cells
